Experimental data: ChEMBL document CHEMBL3046607, “Synthesis and Herbicidal Activity of New 1-Alkyl-3-aryloxypyrazole-4-carboxamide Derivatives” (J Pestic Sci, 2004)
Activity calls are given as the source filed them. The calls are words filed in the database; no cut-off is given here.

Assays:
Elatine triandra [1] = assay: Post-emergence herbicidal activity against Elatine triandra assessed as bleaching of stem/leaf parts; type: functional, organism-based; further: test concentration or dose not given here
Ammannia multiflora [2] = assay: Post-emergence herbicidal activity against Ammannia multiflora assessed as bleaching of stem/leaf parts; type: functional, organism-based
Rotala indica [3] = assay: Post-emergence herbicidal activity against Rotala indica assessed as bleaching of stem/leaf parts; type: functional, organism-based
Lindernia procumbens [4] = assay: Post-emergence herbicidal activity against Lindernia procumbens assessed as bleaching of stem/leaf parts; type: functional, organism-based; further: test concentration or dose not given here
[5] = test system: Schoenoplectiella juncoides; assay: Post-emergence herbicidal activity against Schoenoplectiella juncoides assessed as bleaching of stem/leaf parts; type: functional, organism-based; further: test concentration or dose not given here
Ammannia multiflora [6] = assay: Pre-emergence herbicidal activity against Ammannia multiflora at 500 g a.i/ha measured after 14 days; type: functional, organism-based
Elatine triandra [7] = assay: Pre-emergence herbicidal activity against Elatine triandra at 500 g a.i/ha measured after 14 days; type: functional, organism-based
Oryza sativa = assay: Phytotoxicity against Oryza sativa cv. Koshihikari (rice) at 500 g a.i/ha measured after 14 days; type: organism-based; conditions: in vivo, 336 h
Rotala indica [8] = assay: Pre-emergence herbicidal activity against Rotala indica at 500 g a.i/ha measured after 14 days; type: functional, organism-based
Lindernia procumbens [9] = assay: Pre-emergence herbicidal activity against Lindernia procumbens at 500 g a.i/ha measured after 14 days; type: functional, organism-based
[10] = test system: Schoenoplectiella juncoides; assay: Pre-emergence herbicidal activity against Schoenoplectiella juncoides at 500 g a.i/ha measured after 14 days; type: functional, organism-based
Pontederia vaginalis [11] = assay: Pre-emergence herbicidal activity against Monochoria vaginalis at 500 g a.i/ha measured after 14 days; type: functional, organism-based
Cyperus difformis [12] = assay: Pre-emergence herbicidal activity against Cyperus difformis at 500 g a.i/ha measured after 14 days; type: functional, organism-based
Echinochloa oryzicola [13] = assay: Pre-emergence herbicidal activity against Echinochloa oryzicola at 500 g a.i/ha measured after 14 days; type: functional, organism-based
Lindernia procumbens [14] = assay: Pre-emergence herbicidal activity against Lindernia procumbens assessed as bleaching of stem/leaf parts; type: functional, organism-based
Pontederia vaginalis [15] = assay: Pre-emergence herbicidal activity against Monochoria vaginalis assessed as bleaching of stem/leaf parts; type: functional, organism-based
[16] = test system: Schoenoplectiella juncoides; assay: Pre-emergence herbicidal activity against Schoenoplectiella juncoides assessed as bleaching of stem/leaf parts; type: functional, organism-based
Cyperus difformis [17] = assay: Pre-emergence herbicidal activity against Cyperus difformis assessed as bleaching of stem/leaf parts; type: functional, organism-based
Echinochloa oryzicola [18] = assay: Pre-emergence herbicidal activity against Echinochloa oryzicola assessed as bleaching of stem/leaf parts; type: functional, organism-based
Cyperus difformis [19] = assay: Post-emergence herbicidal activity against Cyperus difformis assessed as bleaching of stem/leaf parts; type: functional, organism-based; further: test concentration or dose not given here
Pontederia vaginalis [20] = assay: Post-emergence herbicidal activity against Monochoria vaginalis assessed as bleaching of stem/leaf parts; type: functional, organism-based
Echinochloa oryzicola [21] = assay: Post-emergence herbicidal activity against Echinochloa oryzicola assessed as bleaching of stem/leaf parts; type: functional, organism-based
Ammannia multiflora [22] = assay: Pre-emergence herbicidal activity against Ammannia multiflora assessed as bleaching of stem/leaf parts; type: functional, organism-based
Elatine triandra [23] = assay: Pre-emergence herbicidal activity against Elatine triandra assessed as bleaching of stem/leaf parts; type: functional, organism-based
Rotala indica [24] = assay: Pre-emergence herbicidal activity against Rotala indica assessed as bleaching of stem/leaf parts; type: functional, organism-based

Row | SMILES | Activity (Elatine triandra [1]) | Activity (Ammannia multiflora [2]) | Activity (Rotala indica [3]) | Activity (Lindernia procumbens [4]) | Activity [5] | Activity (Ammannia multiflora [6]) | Activity (Elatine triandra [7]) | Activity (Oryza sativa) | Activity (Rotala indica [8]) | Activity (Lindernia procumbens [9]) | Activity [10] | Activity (Pontederia vaginalis [11]) | Activity (Cyperus difformis [12]) | Activity (Echinochloa oryzicola [13]) | Activity (Lindernia procumbens [14]) | Activity (Pontederia vaginalis [15]) | Activity [16] | Activity (Cyperus difformis [17]) | Activity (Echinochloa oryzicola [18]) | Activity (Cyperus difformis [19]) | also measured
1 | Cn1cc(C(=O)NCc2cccc(Cl)c2)c(Oc2cccc(C(F)(F)F)c2)n1 | Active | Active | Active | Active | Active | inactive | inactive | Non-toxic | inactive | inactive | inactive | inactive | inactive | inactive | Active | Active | Active | Active | Active | Active | Activity (Pontederia vaginalis [20]): Active; Activity (Echinochloa oryzicola [21]): Active; Activity (Ammannia multiflora [22]): Active; Activity (Elatine triandra [23]): Active; Activity (Rotala indica [24]): Active
2 | Cn1cc(NC(=O)c2ccc(F)cc2)c(Oc2cccc(C(F)(F)F)c2)n1 | Active | Active | Active | Active | Active | inactive | inactive | Non-toxic | inactive | inactive | inactive | inactive | inactive | inactive | Active | Active | Active | Active | Active | Active | Activity (Pontederia vaginalis [20]): Active; Activity (Echinochloa oryzicola [21]): Active; Activity (Ammannia multiflora [22]): Active; Activity (Elatine triandra [23]): Active; Activity (Rotala indica [24]): Active
3 | CCCCNC(=O)c1cn(C)nc1Oc1cccc(C(F)(F)F)c1 | Active | Active | Active | Active | Active | inactive | inactive | Non-toxic | inactive | inactive | inactive | inactive | inactive | inactive | Active | Active | Active | Active | Active | Active | Activity (Pontederia vaginalis [20]): Active; Activity (Echinochloa oryzicola [21]): Active; Activity (Ammannia multiflora [22]): Active; Activity (Elatine triandra [23]): Active; Activity (Rotala indica [24]): Active
4 | Cn1cc(C(=O)NCC2CCCO2)c(Oc2cccc(C(F)(F)F)c2)n1 (stereo not given) | Active | Active | Active | Active | Active | inactive | inactive | Non-toxic | inactive | inactive | inactive | inactive | inactive | inactive | Active | Active | Active | Active | Active | Active | Activity (Pontederia vaginalis [20]): Active; Activity (Echinochloa oryzicola [21]): Active; Activity (Ammannia multiflora [22]): Active; Activity (Elatine triandra [23]): Active; Activity (Rotala indica [24]): Active
5 | Cn1cc(C(=O)Nc2ccc(F)cc2F)c(Oc2cc(C(F)(F)F)ccn2)n1 | Active | Active | Active | Active | Active | inactive | inactive | Non-toxic | inactive | inactive | inactive | inactive | inactive | inactive | Active | Active | Active | Active | Active | Active | Activity (Pontederia vaginalis [20]): Active; Activity (Echinochloa oryzicola [21]): Active; Activity (Ammannia multiflora [22]): Active; Activity (Elatine triandra [23]): Active; Activity (Rotala indica [24]): Active
6 | CSc1ccc(Oc2nn(C)cc2C(=O)Nc2ccc(F)cc2F)cc1C(F)(F)F | Active | Active | Active | Active | Active | Active | Active | Non-toxic | Active | Active | inactive | Active | Active | Active | Active | Active | Active | Active | Active | Active | Activity (Pontederia vaginalis [20]): Active; Activity (Echinochloa oryzicola [21]): Active; Activity (Ammannia multiflora [22]): Active; Activity (Elatine triandra [23]): Active; Activity (Rotala indica [24]): Active
7 | Cn1cc(NC(=O)c2ccc(F)cc2F)c(Oc2cccc(C(F)(F)F)c2)n1 | Active | Active | Active | Active | Active | inactive | inactive | Non-toxic | inactive | inactive | inactive | inactive | inactive | inactive | Active | Active | Active | Active | Active | Active | Activity (Pontederia vaginalis [20]): Active; Activity (Echinochloa oryzicola [21]): Active; Activity (Ammannia multiflora [22]): Active; Activity (Elatine triandra [23]): Active; Activity (Rotala indica [24]): Active
